Data on 18 molecules can be found in patent US6559160B1, “Compounds and methods for modulating cxcr3 function” (Chemocentryx, Inc., priority 1999, dated 2003).

One data set concerns the target T1, CXCR3 (Homo sapiens, UniProt P49682).
T1 construct: CXCR3-expressing cells were prepared according to standard methods and used in most assays
T1 sequence (P49682 1-368): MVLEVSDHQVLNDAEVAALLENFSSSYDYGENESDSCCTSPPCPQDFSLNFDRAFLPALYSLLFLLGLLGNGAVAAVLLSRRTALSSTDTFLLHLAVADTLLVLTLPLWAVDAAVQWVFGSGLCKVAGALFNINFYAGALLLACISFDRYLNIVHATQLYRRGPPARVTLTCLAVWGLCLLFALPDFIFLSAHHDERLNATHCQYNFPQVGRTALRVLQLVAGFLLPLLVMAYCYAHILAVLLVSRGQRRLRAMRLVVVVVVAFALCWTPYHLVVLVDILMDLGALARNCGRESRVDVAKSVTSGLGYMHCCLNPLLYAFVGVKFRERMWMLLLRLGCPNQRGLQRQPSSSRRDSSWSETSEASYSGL
As to the kind of experiment: CXCR3 binding assay: inhibition of 125I-IP-10 binding to CXCR3-expressing cells. The conditions noted are these: concentration required to reduce binding of labeled IP-10 to the receptor by 50%, approx. 3 hours at 4° C. As to the method: Source plates of chemical libraries were obtained from commercial vendors and contained individual compounds at 5 mg/mL in DMSO, or in some instances, at 1 mg/mL. From these, multiple compound plates containing 10 compounds in each well were made, and these were diluted in 20% DMSO to a concentration of 50 μg/mL (10 μg/mL for those beginning at 1 mg/mL). An aliquot of 20 μL of each mixture was put into the test plates, which were stored frozen until use.
CXCR3-expressing cells were prepared according to standard methods and used in most assays. The cells were cultured in IMDM-5% FBS, and harvested when the concentration was between 0.5-1.0×10^6 cells/mL. The cells were centrifuged and resuspended in assay buffer (20 mM HEPES, 80 mM NaCl, 1 mM CaCl2, 5 mM MgCl2, and with 0.2% bovine serum albumin, pH 7.1) to a concentration of 5.6×10^6 cells/mL. Using a Multi-Probe automated system, 0.09 mL of cells was added to each well of the assay test plates containing the compounds, followed by 0.09 mL of ^125I-Ip-10 (from New England Nuclear) diluted in assay buffer (final concentration ˜25-100 pM, with ˜50,000 cpm per well). The final concentration of the compounds was 1-5 μg/mL each. The plates were sealed and incubated for approximately 3 hours at 4° C. on a shaker platform. (In some experiments radiolabeled MIG was used.) The assay plates were harvested using Packard filter plates, pre-soaked in PEI solution, on the vacuum harvest apparatus. Scintillation fluid (35 μL) was added to each of the wells, the plates were sealed and counted in a Top Count scintillation counter. Control wells contained either diluent only (for total counts) or excess IP-10 (1 μg/mL, for non-specific binding) and were used to calculate the percent of total inhibition for each set of compounds. Further tests on individual compounds were carried out in the same manner. IC50 values are those concentrations required to reduce the binding of labeled IP-10 to the receptor by 50%.
The binding of IP-10 or MIG to CXCR3 was first optimized by testing various pH and salt concentrations for their effect in a homologous competition assay. Maximum binding of radiolabeled MIG takes place under low salt (80 mM) conditions, as compared to normal salt (140 mM), while there is no difference between pH 7.1 and 7.4.
In the case of `CCCCCCCC(=O)N(CCN(C)C)C(C)c1nc2ccccc2c(=O)n1-c1ccc(OC)cc1` (stereo not shown) [Compound 1.5], the IC50 lay in the range of 800 to 5000 nM.

Regarding `CCCCCCCCC(=O)N(CCN(C)C)C(C)c1nc2ccccc2c(=O)n1-c1ccc(OC)cc1` (stereo not shown) [Compound 1.9], the IC50 was no more than 800 nM.

Molecule `CCCCCCCCCCCCCC(=O)N(CCN(C)C)C(C)c1nc2ccccc2c(=O)n1-c1ccc(OC)cc1` (stereo not shown) [Compound 1.15] yielded an IC50 of no more than 800 nM.

Turning to `CCCCCCC(=O)N(CCN(C)C)C(C)c1nc2ccccc2c(=O)n1-c1ccc(OC)cc1` (stereo not shown) [Compound 1.3], the IC50 lay in the range of 800 to 5000 nM.

`CCCCCC(=O)N(CCN(C)C)C(C)c1nc2ccccc2c(=O)n1-c1ccc(F)cc1` (stereo not shown) [Compound 1.1] showed an IC50 greater than 5000 nM.

Take `CCCCCCCCCCCCCC(=O)N(CCN(C)C)C(C)c1nc2ccccc2c(=O)n1-c1ccc(F)cc1` (stereo not shown) [Compound 1.14]: the IC50 is no more than 800 nM.

Molecule `CCCCCCCCCC(=O)N(CCN(C)C)C(C)c1nc2ccccc2c(=O)n1-c1ccc(F)cc1` (stereo not shown) [Compound 1.11] came in with an IC50 of no more than 800 nM.

In turn, `CCCCCCC(=O)N(CCN(C)C)C(C)c1nc2ccccc2c(=O)n1-c1ccc(F)cc1` (stereo not shown) [Compound 1.2] yielded an IC50 greater than 5000 nM.

On to `CCCCCCCCCCCC(=O)N(CCN(C)C)C(C)c1nc2ccccc2c(=O)n1-c1ccc(Cl)cc1` (stereo not shown) [Compound 1.13], for which the IC50 lay in the range of 800 to 5000 nM.

`CCCCCCCC(=O)N(CCN(C)C)C(C)c1nc2ccccc2c(=O)n1-c1ccc(Br)cc1` (stereo not shown) [Compound 1.4] yielded an IC50 of 800 to 5000 nM.

The molecule `CCCCCCCCC(=O)N(CCN(C)C)C(C)c1nc2ccccc2c(=O)n1-c1ccc(C)cc1` (stereo not shown) [Compound 1.7] had an IC50 greater than 5000 nM.

As to `CCCCCCCCCC(=O)N(CCN(C)C)C(C)c1nc2ccccc2c(=O)n1-c1ccccc1` (stereo not shown) [Compound 1.12], the IC50 was greater than 5000 nM.

The molecule `CCCCCCCCC(=O)N(CCN(C)C)C(C)c1nc2ccccc2c(=O)n1-c1ccc(Cl)cc1` (stereo not shown) [Compound 1.10] came in with an IC50 of no more than 800 nM.

As to `CCCCCCCC(=O)N(CCN(C)C)C(C)c1nc2ccccc2c(=O)n1-c1ccc(F)cc1` (stereo not shown) [Compound 1.6], the half-maximal inhibitory concentration (IC50) is 800 to 5000 nM.

The test system of the next data set is 5 other chemokine receptors on activated lymphocytes. The experiment in a line: Signalling (calcium mobilization) by other chemokines on activated lymphocytes. In kind it is cell-based, human.
Conditions: not given
As to the method:
Calcium mobilization assays were performed by labeling human peripheral blood lymphocytes (cultured in 10 ng/mL IL-2 for at least 12 days) with INDO-1 dye (45 min at room temperature), washing with PBS, and resuspending into flux buffer (HBSS with 1% fetal bovine serum). For each test, 1×10^6 cells were incubated at 37° C. in the cuvette of a PTI spectrometer, and the ratio of 400/490 nm emission was plotted over time (typically 2-3 minutes), with compounds added at 5 seconds, followed by IP-10 or other chemokines.
Consider `CCCCCCCCCC(=O)N(CCN(C)C)C(C)c1nc2ccccc2c(=O)n1-c1ccc(F)cc1` (stereo not shown) [Compound 1.11], for which the “interference with signalling by other chemokines” value is on record as “did not interfere with signalling by those chemokines”.

Test system in another data set: not given
Assay: not given
Conditions: not given
`CCCCCCCCCC(=O)N(CCN(C)C)C(C)c1nc2ccc(C)cc2c(=O)n1-c1ccc(F)cc1` (stereo not shown) [Compound 4.4]: the melting point came to 121 °C.

Consider `CCCCCCCCCC(=O)N(CCN(C)C)C(C)c1nc2c(OC)c(OC)c(OC)cc2c(=O)n1-c1ccc(F)cc1` (stereo not shown) [Compound 4.7], for which the melting point came out at 106.7 °C.

`CCCCCCCCCC(=O)N(CCN(C)C)C(C)c1nc2ccc(OC)cc2c(=O)n1-c1ccc(OC)cc1` (stereo not shown) [Compound 4.1] yielded a melting point of 124.2 °C.

Molecule `CCCCCCCCCC(=O)N(CCN(C)C)C(C)c1nc2ccc(Cl)cc2c(=O)n1-c1ccc(F)cc1` (stereo not shown) [Compound 4.5] displayed a melting point of 122.9 °C.

One may read the IC50 as the point on the concentration scale where inhibition reaches its midpoint. A high value points to lower potency. As usually defined, the melting point is the temperature, or range, at which the solid turns liquid.
